# Measured values as given in publication PMC11277145, “Wrinkle-Improving Effect of Novel Peptide That Binds to Nicotinic Acetylcholine Receptor” (International Journal of Molecular Sciences, 2024).
# Where no end group is shown, it is not given here.
# Columns and labels:
# [1] = test system: dermal fibroblasts; test: In vitro cell viability (MTT) assay; format: cell-based, human; conditions: 24 h
# Procedure: TE671 rhabdomyosarcoma cell line was purchased from Korea Cell Line Bank (Seoul, Republic of Korea). Dermal fibroblasts (Hs68) were purchased from American Type Culture Collection. Cells were cultured in Dulbecco’s Modified Eagle’s medium (DMEM) and medium containing 10% fetal bovine serum (FBS), 1% penicillin-streptomycin at 37 °C, and up to 5% CO2. Human skin keratinocytes (HEKn) were purchased from Thermo Fisher Scientific (Waltham, MA, USA) and cultured using keratinocyte growth medium, keratinocyte-SFM supplemented with epidermal growth factor (EGF) and bovine pituitary extract (BPE) at 37 °C, and up to 5% CO2.
# The in vitro cytotoxicity of the novel peptide on cells was assessed using the MTT [(3-(4,5-dimethylthiazol-2-yl)-2,5-diphenyltetrazolium bromide] cell viability assay. Briefly, dermal fibroblasts were cultured in 24-well plates at a density of 1 × 10^5 cells/well for 18 h. After the medium was removed, the sample diluted in FBS-free medium was added and cultured for 24 h. Then, after the medium was removed, MTT solution was added at a concentration of […] and left to react for 3 h. Unreacted MTT was removed, 100 μL of DMSO was added to dissolve the formed reaction product, and the absorbance at 540 nm was measured and evaluated using an ELISA reader.
# [2] = biological target: T1, nAChR subunit α1 (Homo sapiens, UniProt P02708); test: SPR binding affinity to immobilized nAChR subunit α1
# T1 construct: purchased MyBioSource MBS963713
# Excerpt: The ligand used recombinant human acetylcholine receptor subunit α1, Cat. No. MBS963713 (MyBioSource, San Diego, CA, USA), and SYN®-AKE used dipeptide diaminobutyroyl benzylamide (Cayman Chemical, Ann Arbor, MI, USA). All peptides used in this study were synthesized and supplied by Anygen (Gwangju, Republic of Korea). Phosphate-buffered saline (PBS), Tween 20, polyethylene glycol (weight-averaged molecular weight (MW) = 8000), LB agar, and bovine serum albumin (BSA) were purchased from Sigma-Aldrich (St. Louis, MO, USA). All reagents and cell culture media were purchased from WELGENE (Gyeongsan-si, Republic of Korea). The INCI name for the novel peptide is Palmitoyl Hexapeptide-93. It was synthesized by Incospharm (Daejeon, Republic of Korea), and clinical trials were conducted with a content of 500 ppm (w/v).
# The SPR analysis was performed using a BIACORE 3000 (GE healthcare, Chicago, IL, USA). The nAChR subunit α1 was immobilized on a CM5 sensor chip by injecting the protein diluted in PBS (0.2 M phosphate buffer, 0.027 M KCl, 1.37 M NaCl, pH 7.4) at a concentration of 0.35 mg/mL at a flow rate of 5 μL min^−1. After, 5 μM peptide was injected into running buffer (20 mM Tris, pH 7) and its interaction with nAChR subunit α1 was measured at a flow rate of 30 μL min^−1. For kinetic experiments, peptides diluted in running buffer at concentrations ranging from […] to 200, 400, 600, 1000, and 1200 nM were injected at a flow rate of 30 μL min^−1 over the immobilized nAChR subunit α1. The association and dissociation kinetic rate constants (ka and kd) and the equilibrium […], KD, were calculated using BIAevaluation 3.1 software.
# [3] = test system: human skin; test: Human skin irritation patch test; format: in vivo
# Procedure: The skin irritation test was conducted at CRA Korea Co., Ltd. in the Republic of Korea, with the approval serial number CRA21-HIPTRP1001. The patch used was the IQ Ultra Chamber (Chemotechnique Diagnostics, Vellinge, Sweden). The human skin primary irritation test was completed, with all 31 subjects participating until the end of the study. The test area for the product was the back (excluding the spinal area). The patch was applied for 24 h and then removed. The first evaluation was conducted 30 min after patch removal while waiting for the transient erythema to disappear due to removal, and the second evaluation was conducted 24 h after patch removal. The irritation criterion used a measurement evaluation method designed by Frosch and Kligman by applying the reading standards of the International Contact Dermatitis Research Group (ICDRG).
# [4] = 0.1ppm, 30 min after patch removal, 31 subjects
# [5] = 0.1ppm, 24 hours after patch removal, 31 subjects
# [6] = 1ppm, 30 min after patch removal, 31 subjects
# [7] = 1ppm, 24 hours after patch removal, 31 subjects
# [8] = 10ppm, 30 min after patch removal, 31 subjects
# [9] = 10ppm, 24 hours after patch removal, 31 subjects
# [10] = 100ppm, 30 min after patch removal, 31 subjects
# [11] = 100ppm, 24 hours after patch removal, 31 subjects
# T1 sequence (P02708 21-457): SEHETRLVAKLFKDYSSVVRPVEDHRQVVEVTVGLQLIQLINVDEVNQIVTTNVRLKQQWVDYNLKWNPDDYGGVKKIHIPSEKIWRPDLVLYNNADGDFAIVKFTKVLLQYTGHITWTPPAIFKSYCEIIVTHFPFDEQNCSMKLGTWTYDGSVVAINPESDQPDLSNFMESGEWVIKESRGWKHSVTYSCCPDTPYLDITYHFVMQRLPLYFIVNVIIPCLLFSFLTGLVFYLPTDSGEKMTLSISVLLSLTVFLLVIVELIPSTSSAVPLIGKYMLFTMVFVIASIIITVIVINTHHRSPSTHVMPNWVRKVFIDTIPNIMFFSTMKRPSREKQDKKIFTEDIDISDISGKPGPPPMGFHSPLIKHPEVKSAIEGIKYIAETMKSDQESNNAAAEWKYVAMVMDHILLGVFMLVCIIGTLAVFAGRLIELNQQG
substance,measurement,setting,value
RRGVRR [Peptide 289],cytotoxicity,"[1]; 0.1 ppm to 100 ppm, dermal fibroblasts, 540 nm",no toxicity
same,cytotoxicity,"[1]; up to 100 μg/mL, fibroblasts",non-cytotoxic
same,kon,"[2]; SPR, 200-1200 nM, 20 mM Tris pH 7, 30 μL/min, read-out: ka",14900 M⁻¹ s⁻¹
same,Kd,"[2]; binding affinity to nAChR subunit α1, bound given in abstract, SPR",< 1000 nM
same,Kd,"[2]; equilibrium dissociation constant (KD), SPR, 200-1200 nM, 20 mM Tris pH 7, BIAevaluation 3.1",609 nM
same,koff,"[2]; pH 7, read-out: dissociation rate constant (kd)",0.00906 s⁻¹
same,skin irritation judgement,[3]; 0.1ppm,No irritation
same,skin reactivity score,"[3]; 0.1 ppm to 100 ppm, 24 h patch, back, 31 subjects",0.0 ± 0.00
same,skin irritation,"[3]; 0.1 ppm to 100 ppm, Frosch and Kligman and COLIPA criteria, 31 subjects",non-irritation
same,Average response (%),"[3]; 0.1ppm, 31 subjects",0.0±0.00%
same,subjects with 1+ reaction,[3]; [4],0
same,subjects with 2+ reaction,[3]; [4],0
same,subjects with 3+ reaction,[3]; [4],0
same,subjects with ± reaction,[3]; [4],0
same,subjects with 1+ reaction,[3]; [5],0
same,subjects with 2+ reaction,[3]; [5],0
same,subjects with 3+ reaction,[3]; [5],0
same,subjects with ± reaction,[3]; [5],0
same,skin irritation judgement,[3]; 1ppm,No irritation
same,Average response (%),"[3]; 1ppm, 31 subjects",0.0±0.00%
same,subjects with 1+ reaction,[3]; [6],0
same,subjects with 2+ reaction,[3]; [6],0
same,subjects with 3+ reaction,[3]; [6],0
same,subjects with ± reaction,[3]; [6],0
same,subjects with 1+ reaction,[3]; [7],0
same,subjects with 2+ reaction,[3]; [7],0
same,subjects with 3+ reaction,[3]; [7],0
same,subjects with ± reaction,[3]; [7],0
same,skin irritation judgement,[3]; 10ppm,No irritation
same,Average response (%),"[3]; 10ppm, 31 subjects",0.0±0.00%
same,subjects with 1+ reaction,[3]; [8],0
same,subjects with 2+ reaction,[3]; [8],0
same,subjects with 3+ reaction,[3]; [8],0
same,subjects with ± reaction,[3]; [8],0
same,subjects with 1+ reaction,[3]; [9],0
same,subjects with 2+ reaction,[3]; [9],0
same,subjects with 3+ reaction,[3]; [9],0
same,subjects with ± reaction,[3]; [9],0
same,skin irritation judgement,[3]; 100ppm,No irritation
same,Average response (%),"[3]; 100ppm, 31 subjects",0.0±0.00%
same,subjects with 1+ reaction,[3]; [10],0
same,subjects with 2+ reaction,[3]; [10],0
same,subjects with 3+ reaction,[3]; [10],0
same,subjects with ± reaction,[3]; [10],0
same,subjects with 1+ reaction,[3]; [11],0
same,subjects with 2+ reaction,[3]; [11],0
same,subjects with 3+ reaction,[3]; [11],0
same,subjects with ± reaction,[3]; [11],0
